Where “and” joins values, the source holds several entries; their conditions need not be identical. Equal values may be shown once.
Assay: an = ratio of the nth substance listed
Settings: for viscosity / speed of sound / mass density: 102 kPa, Liquid; for viscosity: Concentric cylinders viscometry; for speed of sound: Frequency=3 MHz, Sing-around technique in a fixed-path interferometer; for mass density: Vibrating tube method; for surface tension liquid-gas: 294.5 K, Pendant drop shape

CCCCC1CCCCC1 [butylcyclohexane] + CCCCCCCCCCCC
Settings | mass density | speed of sound | viscosity
293.15 K, a2 = 0.3332 | 783.9 kg/m3 | 1317.5 m/s and 1317.3 m/s | 1.34 mPa·s
293.15 K, a2 = 1 | 770.6 kg/m3 | 1309 m/s and 1308.8 m/s | 1.38 mPa·s
293.15 K, a2 = 2.995 | 759 kg/m3 | 1302.4 m/s | 1.44 mPa·s
293.15 K, a2 = 3.001 | 759 kg/m3 | 1302.6 m/s | 1.42 mPa·s
303.15 K, a2 = 0.3332 | 776.5 kg/m3 | 1278.1 m/s and 1278.4 m/s | 1.13 mPa·s
303.15 K, a2 = 1 | 763.3 kg/m3 | 1270.4 m/s and 1270.1 m/s | 1.17 mPa·s
303.15 K, a2 = 2.995 | 751.7 kg/m3 | 1264 m/s | 1.22 mPa·s
303.15 K, a2 = 3.001 | 751.7 kg/m3 | 1264.3 m/s | 1.2 mPa·s
313.15 K, a2 = 0.3332 | 769.1 kg/m3 | 1239.7 m/s and 1239.9 m/s | 0.972 mPa·s and 0.974 mPa·s
313.15 K, a2 = 1 | 755.9 kg/m3 | 1232.3 m/s and 1232 m/s | 1.01 mPa·s and 1 mPa·s
313.15 K, a2 = 2.995 | 744.4 kg/m3 | 1226.2 m/s | 1.04 mPa·s
313.15 K, a2 = 3.001 | 744.4 kg/m3 | 1226.5 m/s | 1.02 mPa·s
323.15 K, a2 = 0.3332 | 761.6 kg/m3 | 1201.8 m/s and 1202 m/s | 0.845 mPa·s and 0.846 mPa·s
323.15 K, a2 = 1 | 748.5 kg/m3 | 1194.8 m/s and 1194.6 m/s | 0.88 mPa·s and 0.865 mPa·s
323.15 K, a2 = 2.995 | 737.1 kg/m3 | 1189 m/s | 0.896 mPa·s
323.15 K, a2 = 3.001 | 737.1 kg/m3 | 1189.3 m/s | 0.883 mPa·s
333.15 K, a2 = 0.3332 | 754.1 kg/m3 | 1164.8 m/s and 1164.7 m/s | 0.743 mPa·s and 0.741 mPa·s
333.15 K, a2 = 1 | 741.1 kg/m3 | 1158.1 m/s and 1157.9 m/s | 0.774 mPa·s and 0.757 mPa·s
333.15 K, a2 = 2.995 | 729.7 kg/m3 | 1152.5 m/s | 0.788 mPa·s
333.15 K, a2 = 3.001 | 729.7 kg/m3 | 1152.9 m/s | 0.77 mPa·s
343.15 K, a2 = 0.3332 | 746.5 kg/m3 | – | 0.656 mPa·s
343.15 K, a2 = 1 | 733.6 kg/m3 and 733.7 kg/m3 | – | 0.686 mPa·s and 0.668 mPa·s
343.15 K, a2 = 2.995 | 722.5 kg/m3 | – | 0.699 mPa·s
343.15 K, a2 = 3.001 | 722.2 kg/m3 | – | 0.678 mPa·s

Settings | surface tension liquid-gas [mN/m]
a2 = 0.3332 | 26.1
a2 = 0.3335 | 26.1
a2 = 0.9998 | 25.8
a2 = 1 | 25.6
a2 = 2.997 | 25.4
a2 = 3.001 | 25.3

CCCCC1CCCCC1 [butylcyclohexane] + CCCCCCCCCCCCCCCC
Settings | mass density [kg/m3] | speed of sound [m/s] | viscosity [mPa·s]
293.15 K, a2 = 0.25 | 791.29 | 1334.4 | 1.68
293.15 K, a2 = 0.3333 | 789.5 | 1335.5 | 1.78
293.15 K, a2 = 0.3335 | 789.61 | 1335.2 | 1.78
293.15 K, a2 = 0.6666 | 785.19 | – | 2.08
293.15 K, a2 = 0.6667 | – | 1339.5 | –
293.15 K, a2 = 0.9992 | 782.68 | 1342.9 | 2.29
293.15 K, a2 = 0.9997 | 782.68 | 1342.9 | 2.29
293.15 K, a2 = 1.5 | 780.35 | 1345.6 | 2.5
293.15 K, a2 = 2.997 | 777.44 | 1349.7 | 2.84
293.15 K, a2 = 3.001 | 777.44 | 1350 | 2.84
293.15 K, a2 = 3.998 | 776.54 | 1350.8 | 2.96
303.15 K, a2 = 0.25 | 784.02 | 1295.9 | 1.4
303.15 K, a2 = 0.3333 | 782.27 | 1297.1 | 1.5
303.15 K, a2 = 0.3335 | 782.37 | 1296.8 | 1.49
303.15 K, a2 = 0.6666 | 778.07 | – | 1.71
303.15 K, a2 = 0.6667 | – | 1301.7 | –
303.15 K, a2 = 0.9992 | 775.6 | 1305.2 | 1.87
303.15 K, a2 = 0.9997 | 775.6 | 1305.2 | 1.87
303.15 K, a2 = 1.5 | 773.33 | 1308.2 | 2.04
303.15 K, a2 = 2.997 | 770.54 | 1312.4 | 2.29
303.15 K, a2 = 3.001 | 770.45 | 1312.7 | 2.29
303.15 K, a2 = 3.998 | 769.57 | 1313.6 | 2.37
313.15 K, a2 = 0.25 | 776.71 | 1257.8 | 1.19
313.15 K, a2 = 0.3333 | 775.01 | 1259.3 | 1.26
313.15 K, a2 = 0.3335 | 775.12 | 1259.1 | 1.26
313.15 K, a2 = 0.6666 | 770.92 | – | 1.44
313.15 K, a2 = 0.6667 | – | 1264.4 | –
313.15 K, a2 = 0.9992 | 768.51 | 1268.2 | 1.56
313.15 K, a2 = 0.9997 | 768.51 | 1268.2 | 1.56
313.15 K, a2 = 1.5 | 766.29 | 1271.3 | 1.69
313.15 K, a2 = 2.997 | 763.47 | 1275.9 | 1.88
313.15 K, a2 = 3.001 | 763.47 | 1276 | 1.88
313.15 K, a2 = 3.998 | 762.61 | 1277 | 1.95
323.15 K, a2 = 0.25 | 769.38 | 1220.2 | 1.03
323.15 K, a2 = 0.3333 | 767.73 | 1222.1 | 1.08
323.15 K, a2 = 0.3335 | 767.83 | 1222 | 1.08
323.15 K, a2 = 0.6667 | 763.75 | 1227.5 | 1.23
323.15 K, a2 = 0.9992 | 761.41 | 1231.8 | 1.33
323.15 K, a2 = 0.9997 | 761.41 | 1231.8 | 1.33
323.15 K, a2 = 1.5 | 759.24 | 1234.9 | 1.42
323.15 K, a2 = 2.997 | 756.48 | 1239.9 | 1.58
323.15 K, a2 = 3.001 | 756.48 | 1240.1 | 1.58
323.15 K, a2 = 3.998 | 755.63 | 1240.9 | 1.62
333.15 K, a2 = 0.25 | 762.02 | 1183.2 | 0.898
333.15 K, a2 = 0.3333 | 760.42 | 1185.7 | 0.942
333.15 K, a2 = 0.3335 | 760.52 | 1185.6 | 0.942
333.15 K, a2 = 0.6667 | 756.56 | 1191.2 | 1.06
333.15 K, a2 = 0.9992 | 754.28 | 1196.2 | 1.14
333.15 K, a2 = 0.9997 | 754.28 | 1196.2 | 1.14
333.15 K, a2 = 1.5 | 752.17 | 1199.1 | 1.22
333.15 K, a2 = 2.997 | 749.48 | 1204.7 | 1.34
333.15 K, a2 = 3.001 | 749.49 | 1205 | 1.34
333.15 K, a2 = 3.998 | 748.65 | 1205.4 | 1.38
343.15 K, a2 = 0.25 | 754.6 | – | 0.789
343.15 K, a2 = 0.3333 | 753.1 | – | 0.827
343.15 K, a2 = 0.3335 | 753.2 | – | 0.821
343.15 K, a2 = 0.6667 | 749.4 | – | 0.926
343.15 K, a2 = 0.9992 | 747.2 | – | 0.991
343.15 K, a2 = 0.9997 | 747.2 | – | 0.991
343.15 K, a2 = 1.5 | 745.1 | – | 1.06
343.15 K, a2 = 2.997 | 742.5 | – | 1.16
343.15 K, a2 = 3.001 | 742.5 | – | 1.16
343.15 K, a2 = 3.998 | 741.4 | – | 1.19

Settings | surface tension liquid-gas [mN/m]
a2 = 0.25 | 26.6
a2 = 0.3333 | 26.7
a2 = 0.3335 | 26.9
a2 = 0.6667 | 26.9
a2 = 0.9992 | 26.9
a2 = 0.9997 | 26.9
a2 = 1.5 | 26.9
a2 = 2.997 | 27.1
a2 = 3.001 | 27
a2 = 3.998 | 27

Reference: the NIST ThermoML archive (doi:10.1021/acs.jced.7b00466)
